Assay results: US6670371B2, “Certain pyrrolopyridine derivatives: novel CRF1 specific ligands” (Neurogen Corporation, priority 1995, dated 2003)

Experiments:
CRF receptors = target: T1, CRF receptors (Homo sapiens, UniProt P34998); assay: CRF receptor binding assay (125I-CRF displacement); settings: membrane pellets containing CRF receptors; 125I-CRF 100 pM; room temperature for 2 hours; non specific binding defined by 1 uM cold CRF
T1 sequence (P34998 24-415): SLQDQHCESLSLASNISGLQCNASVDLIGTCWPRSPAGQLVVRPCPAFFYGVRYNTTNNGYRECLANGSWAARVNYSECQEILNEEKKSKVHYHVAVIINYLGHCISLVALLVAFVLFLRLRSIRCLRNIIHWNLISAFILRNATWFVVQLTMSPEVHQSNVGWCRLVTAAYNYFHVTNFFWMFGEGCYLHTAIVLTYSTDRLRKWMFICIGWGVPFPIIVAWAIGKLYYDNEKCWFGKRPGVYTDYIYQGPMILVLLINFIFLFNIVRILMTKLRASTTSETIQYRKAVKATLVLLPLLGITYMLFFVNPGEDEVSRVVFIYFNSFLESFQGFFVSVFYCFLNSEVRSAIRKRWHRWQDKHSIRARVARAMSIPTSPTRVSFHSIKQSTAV
Protocol: Assay for CRF Receptor Binding Activity
CRF receptor binding was performed using a modified version of the assay described by Grigoriadis and De Souza (Biochemical, Pharmacological, and Autoradiographic Methods to Study Corticotropin-Releasing Factor Receptors. Methods in Neurosciences, Vol. 5, 1991). Membrane pellets containing CRF receptors were resuspended in 50 mM Tris buffer pH 7.7 containing 10 mM MgCl2 and 2 mM EGTA and centrifuged for 10 minutes at 48000 g. Membranes were washed again and brought to a final concentration of 1500 ug/ml in binding buffer (Tris buffer above with 0.1% BSA, n 0.15 M bacitracin and 0.01 mg/ml aprotinin.). For the binding assay, 100 ul of the membrane preparation was added to 96 well microtube plates containing 100 ul of 125I-CRF (SA 2200 Ci/mmol, final concentration of 100 pM) and 50 ul of drug. Binding was carried out at room temperature for 2 hours. Plates were then harvested on a Brandel 96 well cell harvester and filters were counted for gamma emissions on a Wallac 1205 Betaplate liquid scintillation counter. Non specific binding was defined by 1 uM cold CRF.

CCCN(CCC)c1cc(C)nc2c1c1c(n2-c2c(C)cc(C)cc2C)CCCC1 [Compound 1, N,N-Dipropyl-2-methyl-6,7,8,9-tetrahydro-9-(2,4,6-trimethylphenyl)-5H-pyrido[2,3-b]indol-4-amine]
IC50 (CRF receptors): 0.011 µM
melting point: 117 to 118 °C
